Measurements: US20190248779A1, “COMPOUNDS, COMPOSITIONS, AND METHODS FOR INCREASING CFTR ACTIVITY” (Proteostasis Therapeutics, Inc., priority 2016, published 2019)

Biological target: T1, ΔF508-CFTR (Homo sapiens, UniProt P13569, DEL508-508)
T1 construct: Primary lung epithelial cells homozygous for the Cystic Fibrosis-causing ΔF508 mutation were differentiated for a minimum of 4 weeks; endogenous in cells; host or cells: primary lung (bronchial) epithelial cells (hBE) homozygous for ΔF508, differentiated at an air-liquid interface
T1 sequence (P13569 with tags, fused parts or gaps DEL508-508): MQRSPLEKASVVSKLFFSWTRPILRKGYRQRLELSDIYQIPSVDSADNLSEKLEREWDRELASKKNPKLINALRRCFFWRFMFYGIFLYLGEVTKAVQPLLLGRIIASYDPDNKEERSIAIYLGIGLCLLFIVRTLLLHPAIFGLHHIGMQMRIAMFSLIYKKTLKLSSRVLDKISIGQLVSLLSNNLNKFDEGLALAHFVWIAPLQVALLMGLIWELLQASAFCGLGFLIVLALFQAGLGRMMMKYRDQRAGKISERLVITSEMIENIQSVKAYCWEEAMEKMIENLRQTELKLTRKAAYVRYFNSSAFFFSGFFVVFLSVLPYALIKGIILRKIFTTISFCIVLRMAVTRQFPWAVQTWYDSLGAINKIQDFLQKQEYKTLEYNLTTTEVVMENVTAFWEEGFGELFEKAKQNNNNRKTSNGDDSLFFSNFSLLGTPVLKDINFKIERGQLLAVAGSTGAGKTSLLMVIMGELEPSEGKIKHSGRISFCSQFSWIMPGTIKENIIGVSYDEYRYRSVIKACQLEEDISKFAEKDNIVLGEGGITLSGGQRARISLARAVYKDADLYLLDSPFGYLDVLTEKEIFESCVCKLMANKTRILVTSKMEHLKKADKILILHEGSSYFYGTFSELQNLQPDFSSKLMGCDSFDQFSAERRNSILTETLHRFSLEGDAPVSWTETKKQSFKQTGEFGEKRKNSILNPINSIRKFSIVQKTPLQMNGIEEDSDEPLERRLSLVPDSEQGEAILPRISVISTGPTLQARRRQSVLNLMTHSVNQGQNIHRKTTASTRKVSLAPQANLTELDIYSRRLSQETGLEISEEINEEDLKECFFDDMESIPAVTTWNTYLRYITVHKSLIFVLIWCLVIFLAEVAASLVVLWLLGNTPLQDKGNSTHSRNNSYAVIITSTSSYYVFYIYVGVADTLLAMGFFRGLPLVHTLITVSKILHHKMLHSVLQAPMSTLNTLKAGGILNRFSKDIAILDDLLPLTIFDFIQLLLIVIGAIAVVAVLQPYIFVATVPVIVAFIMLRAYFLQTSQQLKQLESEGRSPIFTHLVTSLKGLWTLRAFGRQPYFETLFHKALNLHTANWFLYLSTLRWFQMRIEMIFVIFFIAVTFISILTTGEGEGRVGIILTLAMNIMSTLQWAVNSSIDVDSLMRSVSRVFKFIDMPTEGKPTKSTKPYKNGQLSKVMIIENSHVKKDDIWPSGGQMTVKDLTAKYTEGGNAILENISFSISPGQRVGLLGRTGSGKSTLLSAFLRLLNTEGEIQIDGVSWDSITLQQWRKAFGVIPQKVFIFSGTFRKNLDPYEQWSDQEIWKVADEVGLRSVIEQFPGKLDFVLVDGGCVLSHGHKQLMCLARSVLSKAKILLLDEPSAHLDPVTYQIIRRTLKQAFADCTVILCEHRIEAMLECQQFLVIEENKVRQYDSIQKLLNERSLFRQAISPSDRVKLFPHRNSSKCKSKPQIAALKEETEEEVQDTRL
Test: hBE equivalent current (Ieq) assay
Type: cell-based
Settings: 24 h, relative to a CFTR amplifier at 3 uM, AUC of equivalent chloride current, primary lung epithelial cells homozygous for ΔF508; for Activity 10 μM: compound at 10 μM; for Activity 3 μM: compound at 3 μM
Protocol: ii. hBE Equivalent Current (Ieq) Assay
Primary lung epithelial cells homozygous for the Cystic Fibrosis-causing ΔF508 mutation were differentiated for a minimum of 4 weeks in an air-liquid interface on Costar 24 well HTS filter plates prior to the equivalent current (Ieq) measurements. Cells were apically mucus-washed for 30 minutes 24 h prior to treatment with compounds. The basolateral media was removed and replaced with media containing the compound of interest diluted to its final concentration from DMSO stocks. Treated cells were incubated at 37° C. and 5% CO2 for 24 hours. At the end of the treatment period, the media was changed to the Ieq experimental solution for 2 hours before the experiment and plates are maintained in a CO2-free incubator during this period. The plates containing the cells were then placed in pre-warmed heating blocks at 36° C.±0.5 for 15 minutes before measurements are taken. The transepithelial voltage (VT) and conductance (GT) were measured using a custom 24 channel current clamp (TECC-24) with 24 well electrode manifold. The Ieq assay measurements were made following additions with standardized time periods:
1. The baseline VT and GT values were measured for approximately 20 minutes.
2. Benzamil was added to block ENaC for 15 minutes.
3. Forskolin plus VX-770 were added to maximally activate ΔF508-CFTR for 27 minutes.
4. Bumetanide was added to inhibit the NaK2Cl cotransporter and shut-off secretion of chloride.
The activity data captured was the area under the curve (AUC) for the traces of the equivalent chloride current. The AUC was collected from the time of the forskolin/VX-770 addition until the inhibition by bumetanide addition. Correction in response to compound treatment was scored as the increase in the AUC for compound-treated samples over that of vehicle-treated samples.
The results are shown below in Table 1. + indicates activity <150% of a CFTR amplifier with compound at concentration shown and amplifier at 3 uM; ++ indicates activity >150% of a CFTR amplifier with compound at concentration shown and amplifier at 3 uM.

Row | SMILES | Activity 10 μM | Activity 3 μM
1 | CC(C(=O)Nc1ccc(C(F)(F)F)cc1)n1nc(-c2csc(Cl)n2)ccc1=O (stereo not shown) [Compound 26, 2-[3-(2-Chloro-1,3-thiazol-4-yl)-6-oxo-1,6-dihydropyridazin-1-yl]-N-[4-(trifluoromethyl)phenyl]propanamide] | + (activity <150% of a CFTR amplifier with compound at concentration shown and amplifier at 3 uM) | –
2 | COc1cc(-c2ccc(=O)n(C(C)C(=O)Nc3ccc(C(F)(F)F)cc3)n2)ccn1 (stereo not shown) [Compound 19, 2-(3-(2-Methoxypyridin-4-yl)-6-oxopyridazin-1(6H)-yl)-N-(4-(trifluoromethyl)phenyl)propanamide] | + (activity <150% of a CFTR amplifier with compound at concentration shown and amplifier at 3 uM) | + (activity <150% of a CFTR amplifier with compound at concentration shown and amplifier at 3 uM)
3 | COc1cccc(-c2ccc(=O)n(C(C)C(=O)Nc3ccc(C(F)(F)F)cc3)n2)n1 (stereo not shown) [Compound 22, 2-(3-(6-Methoxypyridin-2-yl)-6-oxopyridazin-1(6H)-yl)-N-(4-(trifluoromethyl)phenyl)propanamide] | + (activity <150% of a CFTR amplifier with compound at concentration shown and amplifier at 3 uM) | ++ (activity >150% of a CFTR amplifier with compound at concentration shown and amplifier at 3 uM)
4 | COc1csc(-c2ccc(=O)n(C(C)C(=O)Nc3ccc(C(F)(F)F)cc3)n2)c1 (stereo not shown) [Compound 18, 2-(3-(4-Methoxythiophen-2-yl)-6-oxopyridazin-1(6H)-yl)-N-(4-(trifluoromethyl)phenyl)propanamide] | + (activity <150% of a CFTR amplifier with compound at concentration shown and amplifier at 3 uM) | –
5 | CC(C(=O)Nc1ccc(C(F)(F)F)cc1)n1nc(-c2cccs2)ccc1=O (stereo not shown) [Compound 13, 2-[6-oxo-3-(thiophen-2-yl)-1,6-dihydropyridazin-1-yl]-N-[4-(trifluoromethyl)phenyl]propanamide] | + (activity <150% of a CFTR amplifier with compound at concentration shown and amplifier at 3 uM) | ++ (activity >150% of a CFTR amplifier with compound at concentration shown and amplifier at 3 uM)
6 | CC(C(=O)Nc1ccc(C(F)(F)F)cc1)n1nc(-c2cnc(Cl)s2)ccc1=O (stereo not shown) [Compound 27, 2-[3-(2-Chloro-1,3-thiazol-5-yl)-6-oxo-1,6-dihydropyridazin-1-yl]-N-[4-(trifluoromethyl)phenyl]propanamide] | + (activity <150% of a CFTR amplifier with compound at concentration shown and amplifier at 3 uM) | –
7 | COc1cccc(-c2ccc(=O)n(C(C)C(=O)Nc3cccnc3)n2)c1 (stereo not shown) [Compound 6, 2-(3-(3-Methoxyphenyl)-6-oxopyridazin-1(6H)-yl)-N-(pyridin-3-yl)propanamide] | + (activity <150% of a CFTR amplifier with compound at concentration shown and amplifier at 3 uM) | + (activity <150% of a CFTR amplifier with compound at concentration shown and amplifier at 3 uM)
8 | CC(C(=O)Nc1ccc(C(F)(F)F)cc1)n1nc(-c2csc(Cl)c2)ccc1=O (stereo not shown) [Compound 16, 2-[3-(5-Chlorothiophen-3-yl)-6-oxo-1,6-dihydropyridazin-1-yl]-N-[4-(trifluoromethyl)phenyl]propanamide] | ++ (activity >150% of a CFTR amplifier with compound at concentration shown and amplifier at 3 uM) | ++ (activity >150% of a CFTR amplifier with compound at concentration shown and amplifier at 3 uM)
9 | COc1cccc(-c2ccc(=O)n(C(C)C(=O)Nc3ccc4[nH]ccc4c3)n2)c1 (stereo not shown) [Compound 3, N-(1H-Indol-5-yl)-2-(3-(3-methoxyphenyl)-6-oxopyridazin-1(6H)-yl)propanamide] | + (activity <150% of a CFTR amplifier with compound at concentration shown and amplifier at 3 uM) | + (activity <150% of a CFTR amplifier with compound at concentration shown and amplifier at 3 uM)
10 | COc1cncc(-c2ccc(=O)n(C(C)C(=O)Nc3ccc(C(F)(F)F)cc3)n2)c1 (stereo not shown) [Compound 20, 2-(3-(5-Methoxypyridin-3-yl)-6-oxopyridazin-1(6H)-yl)-N-(4-(trifluoromethyl)phenyl)propanamide] | ++ (activity >150% of a CFTR amplifier with compound at concentration shown and amplifier at 3 uM) | ++ (activity >150% of a CFTR amplifier with compound at concentration shown and amplifier at 3 uM)
11 | CC(C(=O)Nc1cc(F)cc(F)c1)n1nc(-c2ccc3cc[nH]c3c2)ccc1=O (stereo not shown) [Compound 7, 2-(3-(1H-Indol-6-yl)-6-oxopyridazin-1(6H)-yl)-N-(3,5-difluorophenyl)propanamide] | + (activity <150% of a CFTR amplifier with compound at concentration shown and amplifier at 3 uM) | + (activity <150% of a CFTR amplifier with compound at concentration shown and amplifier at 3 uM)
12 | COc1cccc(-c2ccc(=O)n(C(C)C(=O)Nc3cc(C(F)(F)F)ccn3)n2)c1 (stereo not shown) [Compound 11, 2-(3-(3-Methoxyphenyl)-6-oxopyridazin-1(6H)-yl)-N-(4-(trifluoromethyl)pyridin-2-yl)propanamide] | ++ (activity >150% of a CFTR amplifier with compound at concentration shown and amplifier at 3 uM) | ++ (activity >150% of a CFTR amplifier with compound at concentration shown and amplifier at 3 uM)
13 | COc1cccc(-c2ccc(=O)n(C(C)C(=O)Nc3ccc(C(F)(F)F)cn3)n2)c1 (stereo not shown) [Compound 8, 2-[3-(3-Methoxyphenyl)-6-oxo-1,6-dihydropyridazin-1-yl]-N-[5-(trifluoromethyl)pyridin-2-yl]propanamide] | ++ (activity >150% of a CFTR amplifier with compound at concentration shown and amplifier at 3 uM) | ++ (activity >150% of a CFTR amplifier with compound at concentration shown and amplifier at 3 uM)
14 | CC(C(=O)Nc1ccc(C(F)(F)F)cc1)n1nc(-c2ccsc2)ccc1=O (stereo not shown) [Compound 15, 2-(6-Oxo-3-(thiophen-3-yl)pyridazin-1(6H)-yl)-N-(4-(trifluoromethyl)phenyl)propanamide] | + (activity <150% of a CFTR amplifier with compound at concentration shown and amplifier at 3 uM) | ++ (activity >150% of a CFTR amplifier with compound at concentration shown and amplifier at 3 uM)
15 | CC(C(=O)Nc1ccc(C(F)(F)F)cc1)n1nc(-c2ccc(Cl)s2)ccc1=O (stereo not shown) [Compound 14, 2-(3-(5-Chlorothiophen-2-yl)-6-oxopyridazin-1(6H)-yl)-N-(4-(trifluoromethyl)phenyl)propanamide] | ++ (activity >150% of a CFTR amplifier with compound at concentration shown and amplifier at 3 uM) | ++ (activity >150% of a CFTR amplifier with compound at concentration shown and amplifier at 3 uM)
16 | COc1cccc(-c2ccc(=O)n(C(C)C(=O)Nc3cncc(C(F)(F)F)c3)n2)c1 (stereo not shown) [Compound 12, 2-(3-(3-Methoxyphenyl)-6-oxopyridazin-1(6H)-yl)-N-(5-(trifluoromethyl)pyridin-3-yl)propanamide] | + (activity <150% of a CFTR amplifier with compound at concentration shown and amplifier at 3 uM) | + (activity <150% of a CFTR amplifier with compound at concentration shown and amplifier at 3 uM)
17 | COc1cccc(-c2ccc(=O)n(C(C)C(=O)Nc3ccc(C(F)(F)F)nc3)n2)c1 (stereo not shown) [Compound 9, 2-(3-(3-Methoxyphenyl)-6-oxopyridazin-1(6H)-yl)-N-(6-(trifluoromethyl)pyridin-3-yl)propanamide] | + (activity <150% of a CFTR amplifier with compound at concentration shown and amplifier at 3 uM) | ++ (activity >150% of a CFTR amplifier with compound at concentration shown and amplifier at 3 uM)
18 | CC(C(=O)Nc1ccc(C(F)(F)F)cc1)n1nc(-c2cc(Cl)cs2)ccc1=O (stereo not shown) [Compound 23, 2-(3-(4-Chlorothiophen-2-yl)-6-oxopyridazin-1(6H)-yl)-N-(4-(trifluoromethyl)phenyl)propanamide] | ++ (activity >150% of a CFTR amplifier with compound at concentration shown and amplifier at 3 uM) | –
19 | CC(C(=O)Nc1ccc(C(F)(F)F)cn1)n1nc(-c2cccc(Cl)c2)ccc1=O (stereo not shown) [Compound 17, 2-(3-(3-Chlorophenyl)-6-oxopyridazin-1(6H)-yl)-N-(5-(trifluoromethyl)pyridin-2-yl)propanamide] | ++ (activity >150% of a CFTR amplifier with compound at concentration shown and amplifier at 3 uM) | ++ (activity >150% of a CFTR amplifier with compound at concentration shown and amplifier at 3 uM)
